In US10106550B2, “Aza-phenalene-3-ketone derivative, preparation method thereof, and its application as PARP inhibitor” (SUZHOU KANGRUN PHARMACEUTICALS INC., priority 2015, dated 2018):
“And” between values parts separate entries of the source, which are not always exact repeats. Equal values may be shown once. Read-outs that look alike come from different tables or passages of the source.

Legend:
[1] = biological target: PARP1 (Homo sapiens (Human), UniProt P09874); test: PARP1 inhibitory activity, Universal PARP colorimetric assay kit (Trevigen); assay type: biochemical; details: for IC50: PARP1
PARP1, sequence (P09874 whole entry): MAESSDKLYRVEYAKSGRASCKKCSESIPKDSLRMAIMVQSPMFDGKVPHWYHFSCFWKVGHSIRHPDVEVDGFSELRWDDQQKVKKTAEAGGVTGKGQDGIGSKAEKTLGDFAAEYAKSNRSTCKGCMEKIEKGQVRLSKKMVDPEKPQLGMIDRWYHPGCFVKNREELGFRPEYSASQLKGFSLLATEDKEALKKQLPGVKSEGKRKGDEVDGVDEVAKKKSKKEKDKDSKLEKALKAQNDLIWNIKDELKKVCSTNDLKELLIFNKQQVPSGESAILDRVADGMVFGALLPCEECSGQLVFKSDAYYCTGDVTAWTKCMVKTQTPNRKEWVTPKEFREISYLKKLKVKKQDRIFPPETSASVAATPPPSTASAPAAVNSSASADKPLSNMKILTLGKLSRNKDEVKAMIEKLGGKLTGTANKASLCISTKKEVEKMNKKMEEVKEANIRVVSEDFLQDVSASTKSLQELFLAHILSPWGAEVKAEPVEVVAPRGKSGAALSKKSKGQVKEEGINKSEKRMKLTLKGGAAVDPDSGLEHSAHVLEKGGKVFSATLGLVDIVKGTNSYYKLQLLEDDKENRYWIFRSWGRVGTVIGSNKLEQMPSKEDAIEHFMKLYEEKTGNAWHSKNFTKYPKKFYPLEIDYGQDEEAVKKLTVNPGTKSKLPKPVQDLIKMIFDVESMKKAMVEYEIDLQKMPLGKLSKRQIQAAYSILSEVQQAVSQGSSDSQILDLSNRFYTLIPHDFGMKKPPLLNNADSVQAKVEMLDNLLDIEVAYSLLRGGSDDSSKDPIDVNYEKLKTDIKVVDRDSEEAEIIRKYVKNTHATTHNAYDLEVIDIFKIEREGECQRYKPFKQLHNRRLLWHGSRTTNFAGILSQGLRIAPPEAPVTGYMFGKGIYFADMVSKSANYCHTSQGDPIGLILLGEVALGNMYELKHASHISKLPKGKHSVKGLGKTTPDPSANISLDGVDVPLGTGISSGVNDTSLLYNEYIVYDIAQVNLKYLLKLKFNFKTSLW
Text: 1. Measuring PARP1 Inhibitory Activity
1.1 Materials and Methods
Universal PARP colorimetric assay kit (US Trevigen company)

[2] = Preliminary pharmacokinetics study in SD rats (single intravenous injection or oral gavage, plasma LC-MS/MS); assay type: in vivo; details: for AUC(0-inf) / AUC(0-t) / clearance / half-life / Vd / bioavailability / Cmax / Tmax: male, Sprague-Dawley (SD), rat; for Vd: read-out: VdSS; for bioavailability: single oral gavage 10 mg/kg vs intravenous 5 mg/kg, read-out: F (oral bioavailability)
Experimental: 2. Preliminary Pharmacokinetics Study of Compounds A1, A3, A6 in SD Rats
Healthy SPF SD male rats: 18, weighing 180-220 g, purchased from Shanghai Si Lai Ke Lab Animal Co. Ltd.; animal license no. SOCK (Shanghai) 2013-00016.
Rats were divided into intravenous injection group and oral gavage administration group, and fast for 12-14 hours before experiments. Test compounds' concentration in venous blood was measured. Venous blood was collected by orbital, EDTAK2 anticoagulation. The blood samples were placed on ice, and centrifuged within 30 minutes to separate plasma (centrifugal condition: 5000 rpm/min, 10 min, room temperature). The samples were stored at −80° C. prior to analysis.
Rats in intravenous injection group received a single injection 5 mL/kg of the test compounds. Rats in oral gavage administration group received a single dose 10 mL/kg of the test compounds. Venous blood sample collection times were: before the injection of the test compound (0 hr); after the injection of the test compound: 15 min, 30 min, 1 h, 2 h, 4 h, 6 h, 8 h and 24 h; before the oral gavage administration of the test compound (0 hr) and after the oral gavage administration of the test compounds, 30 min, 1 h, 2 h, 4 h, 6 h, 8 h and 24 h.
Liquid phase conditions: column: Agilent Eclipse plus-C18 (4.6×150 mm, 5.0 μm), mobile phase: 0.1% aqueous formic acid (A)/0.1% formic acid in acetonitrile (B); gradient elution, flow rate: 1.00 mL/min (split v:v=1:1); injection volume: 10 μL.
MS conditions: using electrospray ionization (ESI) and the positive ion mode under multiple reaction monitoring (MRM).
Compounds A1, A3, and A6 were weighed precisely and added to MDSO to prepare 1.00 mg/mL stock solutions. After the stock solutions were diluted to prepare 10000, 5000, 2000, 1000, 500, 100, 50.0, 20.0 ng/mL standard working solutions. Quality control work concentrations include low (30 ng/mL), medium (500 ng/mL), and high (8000 ng/mL).
10 μL plasma sample was added 100 μL verapamil internal standard solution. The mixture was vortexed for 60 seconds and then centrifuged (12000 rpm, 3 min). 70 μL supernatant was transferred to a 96-well plate with equal volume of water in each well. LC-MS/MS analysis was then conducted, and the injection volume was 10 μL.
Data were processed by using WinNonlin 6.3 pharmacokinetic calculation software and non-compartment pharmacokinetic model to obtain major pharmacokinetic parameters.

[3] = in vivo, single intravenous injection, 5 mg/kg
[4] = in vivo, single oral gavage, 10 mg/kg
[5] = plasma, single oral gavage, 10 mg/kg
[6] = single intravenous injection, 5 mg/kg
[7] = plasma, single intravenous injection, 5 mg/kg

Structure (SMILES)	exposure levels (AUC0-4) [2]	Tmax [2, 5] [min]	AUMC0-inf [2, 6] [h · h · ng · mL^−1]	AUMC0-t [2, 6] [h · h · ng · mL^−1]	Kel [2, 6] [h⁻¹]	MRTIV [2, 6] [min]	AUMC0-inf ([2]; single oral gavage, 10 mg/kg) [h · h · ng · mL^−1]	AUMC0-t ([2]; single oral gavage, 10 mg/kg) [h · h · ng · mL^−1]	CL ([2]; single oral gavage, 10 mg/kg) [mL·min/kg]	Kel ([2]; single oral gavage, 10 mg/kg) [h⁻¹]	MRTPO ([2]; single oral gavage, 10 mg/kg) [h]	Vz ([2]; single oral gavage, 10 mg/kg) [L/kg]	IC50 [1] [nM]	other results
NC(=O)c1ccc(I)c([N+](=O)[O-])c1 [BSI-201, reference compound]	–	–	–	–	–	–	–	–	–	–	–	–	–	inhibition at 1 µM ([1]; PARP1, 1 μM, read-out: inhibition rate): 22.4%
NC(=O)c1cccc(N)c1 [Compound 3-AB, reference compound]	–	–	–	–	–	–	–	–	–	–	–	–	–	inhibition at 1000 µM ([1]; PARP1, 1 mM, read-out: inhibition rate): 100%
Cl.O=c1[nH]nc2c3c(cccc13)N=C1CNCCN12 [Compound A1]	higher	30	4190 ± 575	3790 ± 547	0.463 ± 0.063	57.2 ± 6.24	9200 ± 336	8548 ± 240	29.7 ± 3.2	0.523 ± 0.046	1.55 ± 0.20	3.62 ± 0.37	90.5	AUC(0-inf) [2, 3]: 4280 ± 317 ng·h/mL; AUC(0-t) [2, 3]: 4250 ± 304 ng·h/mL; clearance [2, 3]: 19.5 ± 1.4 mL/min/kg; half-life [2, 3]: 91.8 ± 9.6 min; Vd [2, 3]: 1.11 ± 0.11 L/kg; bioavailability ([2]; in vivo): 67.5% and 67.1%; AUC(0-inf) [2, 4]: 5740 ± 841 ng·h/mL; AUC(0-t) [2, 4]: 5710 ± 802 ng·h/mL; Cmax [2, 4]: 3120 ± 173 ng/mL; half-life [2, 4]: 80.4 ± 7.2 min
CCN1CCN2C(=Nc3cccc4c(=O)[nH]nc2c34)C1 [Compound A2]	–	–	–	–	–	–	–	–	–	–	–	–	65.7	–
CN1CCN2C(=Nc3cccc4c(=O)[nH]nc2c34)C1 [Compound A3]	higher	15	1175 ± 105	1145 ± 120	1.02 ± 0.034	30.4 ± 2.4	2658 ± 308	2566 ± 474	71.3 ± 7.6	0.818 ± 0.036	1.08 ± 0.094	5.22 ± 0.81	130	AUC(0-inf) [2, 7]: 2290 ± 321 ng·h/mL; AUC(0-t) [2, 7]: 2290 ± 323 ng·h/mL; clearance [2, 7]: 38.4 ± 2.5 mL/min/kg; half-life [2, 7]: 43.3 ± 4.92 min; Vd [2, 7]: 1.15 ± 0.07 L/kg; bioavailability ([2]; plasma): 50.5 ± 6.8%; AUC(0-inf) [2, 5]: 2310 ± 309 ng·h/mL; AUC(0-t) [2, 5]: 2340 ± 334 ng·h/mL; Cmax [2, 5]: 1860 ± 251 ng/mL; half-life [2, 5]: 50.9 ± 3.3 min
CC(C)N1CCN2C(=Nc3cccc4c(=O)[nH]nc2c34)C1 [Compound A4]	–	–	–	–	–	–	–	–	–	–	–	–	111	–
O=c1[nH]nc2c3c(cccc13)N=C1CN(Cc3ccccc3)CCN12 [Compound A5]	–	–	–	–	–	–	–	–	–	–	–	–	58.7	–
C=C(C)CCN1CCN2C(=Nc3cccc4c(=O)[nH]nc2c34)C1 [Compound A6]	higher	30	232 ± 17	196 ± 27	3.64 ± 0.22	13.3 ± 1.56	284 ± 29	269 ± 33	626 ± 93	1.77 ± 0.28	1.17 ± 0.09	31.2 ± 4.8	39.1	AUC(0-inf) [2, 7]: 1040 ± 118 ng·h/mL; AUC(0-t) [2, 7]: 1000 ± 92 ng·h/mL; clearance [2, 7]: 83.1 ± 13.3 mL/min/kg; half-life [2, 7]: 11.5 ± 0.72 min; Vd [2, 7]: 1.1 ± 0.15 L/kg; bioavailability ([2]; plasma): 13 ± 2.1%; AUC(0-inf) [2, 5]: 271 ± 43 ng·h/mL; AUC(0-t) [2, 5]: 264 ± 36 ng·h/mL; Cmax [2, 5]: 259 ± 28 ng/mL; half-life [2, 5]: 30.8 ± 2.46 min
